Like-named read-outs stand apart in the source and are kept apart here.
How the values were obtained:
[1] = target: T1, PRMT5-MEP50 enzyme complex (Homo sapiens, UniProt O14744); assay: PRMT5-MEP50 Enzyme Methylation Assay; format: biochemical
T1 construct: 1.25 nM of Full-length (FL)-PRMT5-MEP50 enzyme complex; made in house; host or cells: baculovirus-transfected Sf21 cells
Description: PRMT5-MEP50 biochemical assay is a direct measurement of the methylation activity of the enzyme complex on a short peptide substrate derived from the N-terminus of H4 histone. Methylation experiment is performed with recombinant PRMT5-MEP50 protein complex. The assessment of inhibitory effect of small molecules is measured by tire effectiveness of the compounds to inhibit tins reaction (EC50).
In this assay, the potency (EC50) of each compound was determined from a twenty-point (1:2 serial dilution; top compound concentration of 100000 nM) titration curve using the following outlined procedure. To each well of a white ProxiPlus 384 well-plate, 100 nL of compound (1% DMSO in final assay volume of 10 μL) was dispensed, followed by the addition of 8 μL of 1× assay buffer (50 mM Bicine pH 8.0, 1 mM DTT, 0.004% Tween20, 0.01% BSA) containing 1.25 nM of Full-length (FL)-PRMT5-MEP50 enzyme complex (recombinant proteins from baculovirus-transfected Sf21 cells: FL-PRMT5; MW=[…] and FL-MEP50; MW=38614) and 1 μL of 150 μM S-(5′-Adenosyl)-L-Methionine Chloride (SAM). Plates were sealed and placed in a 37° C. humidified chamber for a 60 minutes pre-incubation with compound. Subsequently, each reaction was initiated by the addition of 1 μL 1× assay buffer containing 750 nM biotinylated H4R3(Mel) peptide. The final reaction in each well of 10 μL consists of 1.0 nM PRMT5-MEP50, 75 nM biotinylated-peptide, and […] SAM. Methylation reactions were allowed to proceed for 150 minutes in a sealed plate at 37° C. Reactions were immediately quenched by the addition of 1 μL of 5% formic acid. Plates were then frozen and shipped to SAMDITM Tech Inc. to determine the percent conversion from H4R3(Mel) to H4R3(Me2). Dose-response curves were generated by plotting percent effect (% product conversion; Y-axis) vs. Log 10 compound concentrations (X-axis). EC50 values were determined by non-linear regression according to models for either sigmoidal (4 parameters) or biphasic (7 parameters) dose-response curves.

[2] = system: symmetric dimethylation of arginine (SDMA) of PRMT5 substrates in MCF-7 cells; assay: PRMT5 Cell Target Engagement (TE) Assay; format: cell-based; details: Homo sapiens, MCF7, 72 h, treated for 3 days, nuclear SDMA by high content imaging, top concentration 10000 nM
Description: The PRMT5 TE assay is a biomarker assay for identifying compounds that inhibit symmetric dimethylation of arginine (SDMA) of PRMT5 substrates. The following substrates have been reported for PRMT5: histone H2A and H4 R3, Histone H3 R2, Histone H3 R8, spliceosome Sm proteins, ribosomal protein RPS10, p53, FEN1, nudeoplasmin, nucleolin, EGFR and EBNA. The assay will focus on detecting symmetrically dimethylated nuclear proteins using high content imaging technology. Detection of the expression of symmetrically dimethylated nuclear proteins is through a mixture of primary rabbit monoclonal antibodies to SDMA (CST 13222), which in turn recognized by an Alexafluor 488 dye-conjugated anti-rabbit IgG secondary antibody. The IN Cell Analyzer 2200 or Opera-Phenix measures nuclear Alexafluor 488 fluorescent dye intensity that is directly related to the level of expression of symmetrically dimethylated nuclear proteins at the single cell level. Nuclear AF488 dye intensities are compared to the mean value for DMSO treated cells (MIN) to report percent of inhibition for each compound-treated well.
In this assay, the cell potency (EC50) of each compound was determined from a ten point (1:3 serial dilution; top compound concentration of 10000 nM) titration curve using the following outlined procedure. Each well of a BD falcon collagen coated black/clear bottom 384-well plate was seeded with 4000 MCF-7 cells in 30 μl media and allowed to attach for 5 h. Media is ATCC-formulated Eagle's Minimum Essential Medium, Catalog No. 30-2003. To make the complete growth medium, the following components were added to the base medium: 0.01 mg/ml human recombinant insulin; fetal bovine serum to a final concentration of 10%. Additional 30 μl of media containing 2× compounds were added to each well. Cells were treated for 3 days in 37° C. CO2 incubator. On day 3, cells were fixed with Cytofix, permeablized with 0.4% Triton-X-100/Cytofix, and washed with D-PBS without Ca/Mg. Cells were blocked with Licor Odessey blocking reagent for 1 h at room temperature, followed by incubation with anti-SDMA (1:1000) antibody at 4° C. overnight. 1° antibody was removed, followed by three washings with DPBS without Ca/Mg and 0.05% Tween20. Hoechst (5 μg/ml), Cell Mask deep stain (1:2000) and Alexa488-conjugated goat anti-rabbit IgG (2 μg/mL) was added for 1 hour at room temperature. A final washing step (three washes) was performed before sealing plate for imaging on In Cell Analyzer 2200 or Opera-Phenix. Images from analyzer were uploaded to Columbus (at WP or BOS) for image analysis. IC50 values were determined by 4 parameters robust fit of percent fluorescence units vs. (Logic) compound concentrations.

[3] = second EC50 of 7 parameters biphasic model, read-out: Enzyme Methylation Assay (EC50_2)
[4] = single EC50 from 4 parameters single site sigmoidal model, or first EC50 of 7 parameters biphasic model, 1.0 nM PRMT5-MEP50, H4R3(Me1) peptide, SAM, read-out: Enzyme Methylation Assay (EC50 or EC50_1)

T1 sequence (O14744 whole entry): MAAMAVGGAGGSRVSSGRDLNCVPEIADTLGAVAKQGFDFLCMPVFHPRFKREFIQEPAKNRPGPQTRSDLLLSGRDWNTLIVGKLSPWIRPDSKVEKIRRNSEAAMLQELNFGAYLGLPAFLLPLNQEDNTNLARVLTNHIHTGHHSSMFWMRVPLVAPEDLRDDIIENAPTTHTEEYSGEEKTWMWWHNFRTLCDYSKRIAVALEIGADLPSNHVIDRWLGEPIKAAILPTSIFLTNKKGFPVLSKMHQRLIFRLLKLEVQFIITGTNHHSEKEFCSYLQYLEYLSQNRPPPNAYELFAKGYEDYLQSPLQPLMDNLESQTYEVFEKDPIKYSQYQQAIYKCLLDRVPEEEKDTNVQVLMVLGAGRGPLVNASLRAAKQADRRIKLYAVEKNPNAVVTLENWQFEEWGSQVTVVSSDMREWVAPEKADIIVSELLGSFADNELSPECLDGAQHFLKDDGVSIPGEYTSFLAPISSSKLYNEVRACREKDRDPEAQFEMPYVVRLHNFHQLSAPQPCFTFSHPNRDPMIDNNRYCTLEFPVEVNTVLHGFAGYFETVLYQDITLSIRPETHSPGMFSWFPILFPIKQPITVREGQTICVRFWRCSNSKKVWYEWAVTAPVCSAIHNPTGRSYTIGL
T1 sequence (Q9BQA1 whole entry partner): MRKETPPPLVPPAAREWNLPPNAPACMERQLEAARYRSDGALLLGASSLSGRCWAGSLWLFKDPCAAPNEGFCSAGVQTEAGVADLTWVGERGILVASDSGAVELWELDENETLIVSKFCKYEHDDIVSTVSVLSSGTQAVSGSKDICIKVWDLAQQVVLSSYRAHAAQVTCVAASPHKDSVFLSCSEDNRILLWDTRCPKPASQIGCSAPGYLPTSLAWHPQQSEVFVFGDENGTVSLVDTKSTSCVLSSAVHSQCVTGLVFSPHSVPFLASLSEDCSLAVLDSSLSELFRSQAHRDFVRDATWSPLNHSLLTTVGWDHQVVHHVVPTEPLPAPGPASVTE

Compound | EC50 [1, 3] | EC50 [1, 4] | EC50 [2]
Nc1nc2cc(CC[C@H]3S[C@@H](n4cc(F)c5c(N)ncnc54)[C@H](O)[C@@H]3O)ccc2cc1Br [Example 37, (2R,3S,4R,5R)-2-(2-(2-amino-3-bromoquinolin-7-yl)ethyl)-5-(4-amino-5-fluoro-7H-pyrrolo[2,3-d]pyrimidin-7-yl)tetrahydrothiophene-3,4-diol] | 16.2 nM | 0.4 nM | 9.5 nM
Cc1nc(N)nc2c1ccn2[C@@H]1S[C@H](CCc2ccc3cc(Br)c(N)nc3c2)[C@@H](O)[C@H]1O [Example 38, (2R,3S,4R,5R)-2-(2-(2-amino-3-bromoquinolin-7-yl)ethyl)-5-(2-amino-4-methyl-7H-pyrrolo[2,3-d]pyrimidin-7-yl)tetrahydrothiophene-3,4-diol] | – | 0.5 nM | 7.2 nM
Cc1ncnc2c1ccn2[C@@H]1S[C@@H](CCc2ccc3cc(C(F)F)c(N)nc3c2)[C@@H](O)[C@H]1O [Example 41, (2S,3S,4R,5R)-2-(2-(2-amino-3-(difluoromethyl)quinolin-7-yl)ethyl)-5-(4-methyl-7H-pyrrolo[2,3-d]pyrimidin-7-yl)tetrahydrothiophene-3,4-diol] | 661 nM | 1.2 nM | 123 nM

Now from value to compound:

EC50 [1, 3] | EC50 [1, 4] | EC50 [2] | Compound
– | 0.8 nM | 2.4 nM | Nc1nc2cc(CC[C@@H]3S[C@@H](n4ccc5c(N)ncnc54)[C@H](O)[C@@H]3O)ccc2cc1Cl [Example 42, (2S,3S,4R,5R)-2-(2-(2-amino-3-chloroquinolin-7-yl)ethyl)-5-(4-amino-7H-pyrrolo[2,3-d]pyrimidin-7-yl)tetrahydrothiophene-3,4-diol]
– | 0.7 nM | 2.4 nM | Nc1nc2cc(CC[C@H]3S[C@@H](n4ccc5c(N)ncnc54)[C@H](O)[C@@H]3O)ccc2cc1Cl [Example 43, (2R,3S,4R,5R)-2-(2-(2-amino-3-chloroquinolin-7-yl)ethyl)-5-(4-amino-7H-pyrrolo[2,3-d]pyrimidin-7-yl)tetrahydrothiophene-3,4-diol]
